Assay results from PubChem BioAssay AID192 (DTP/NCI, 2004).
Several values for one entry are separate records, joined by “and”; a condition that tells them apart may be missing. Equal entries are not always repeated. Toxic doses and inconclusive results are not listed. The calls were made as follows: active = survival T/C of 150% or more; inactive = T/C below 125% in these data. Square brackets hold non-standard residues; d marks the D form. Peptide text beside a SMILES is read from it. * marks the point of attachment. ξ: configuration not given here. ξF = NC(Cc1ccccc1)C(=O)O; ClAc = O=C(CCl)*

System: BDF1 mice, B16 melanoma ip, median survival T/C
Test: NCI In Vivo Anticancer Drug Screen. Data for tumor model B16 Melanoma (intraperitoneal) in B6D2F1 (BDF1) mice
Conditions: endpoint: median survival time, higher = longer survival
Summary of the method: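 Values are ratios of treated (T) to vehicle-control (C) measurements of survival or tumor size in tumor-bearing mice.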

[1] = dose: 6.25 mg/kg/injection, schedule: Q01DX009 (ip), vehicle: Klucel (hydroxypropylcellulose) (HPC)
[2] = dose: 12.5 mg/kg/injection, schedule: Q01DX009 (ip), vehicle: Klucel (hydroxypropylcellulose) (HPC)
[3] = dose: 25.0 mg/kg/injection, schedule: Q01DX009 (ip), vehicle: Klucel (hydroxypropylcellulose) (HPC)
[4] = dose: 100.0 mg/kg/injection, schedule: Q01DX009 (ip), vehicle: Klucel (hydroxypropylcellulose) (HPC)
[5] = dose: 200.0 mg/kg/injection, schedule: Q01DX009 (ip), vehicle: Klucel (hydroxypropylcellulose) (HPC)
[6] = dose: 6.25 mg/kg/injection, schedule: Q01DX009 (ip), vehicle: saline
[7] = dose: 12.5 mg/kg/injection, schedule: Q01DX009 (ip), vehicle: saline
[8] = dose: 25.0 mg/kg/injection, schedule: Q01DX009 (ip), vehicle: saline
[9] = dose: 100.0 mg/kg/injection, schedule: Q04DX003 (ip), vehicle: Klucel (hydroxypropylcellulose) (HPC)
[10] = dose: 400.0 mg/kg/injection, schedule: Q04DX003 (ip), vehicle: Klucel (hydroxypropylcellulose) (HPC)
[11] = dose: 6.25 mg/kg/injection, schedule: Q01DX009 (ip), vehicle: saline with Tween-80
[12] = dose: 12.5 mg/kg/injection, schedule: Q01DX009 (ip), vehicle: saline with Tween-80
[13] = dose: 50.0 mg/kg/injection, schedule: Q01DX009 (ip), vehicle: saline
[14] = dose: 100.0 mg/kg/injection, schedule: Q01DX009 (ip), vehicle: saline
[15] = dose: 25.0 mg/kg/injection, schedule: Q01DX009 (ip), vehicle: saline with Tween-80
[16] = dose: 25.0 mg/kg/injection, schedule: Q04DX003 (ip), vehicle: saline with Tween-80
[17] = dose: 50.0 mg/kg/injection, schedule: Q04DX003 (ip), vehicle: saline with Tween-80
[18] = dose: 100.0 mg/kg/injection, schedule: Q01DX009 (ip), vehicle: saline with Tween-80
[19] = dose: 200.0 mg/kg/injection, schedule: Q01DX009 (ip), vehicle: saline with Tween-80
[20] = dose: 50.0 mg/kg/injection, schedule: Q01DX009 (ip), vehicle: saline with Tween-80
[21] = dose: 100.0 mg/kg/injection, schedule: Q04DX003 (ip), vehicle: saline with Tween-80
[22] = dose: 200.0 mg/kg/injection, schedule: Q04DX003 (ip), vehicle: saline with Tween-80

Measured: T/C

CC1(C)NC(=O)C(/C=C/c2ccccc2)O1 (stereo not given)
inactive: [1] 96 % of control | [2] 109 % of control | [3] 121 % of control | [4] 112 % of control | [5] 86 % of control

CN(C)CC(C)(C)CN1c2ccccc2Sc2ccccc21
inactive: [6] 117 % of control | [7] 105 % of control | [8] 105 % of control

CCCCCn1c(C)cc(/C=C\c2ccc3cc(C)ccc3[n+]2C)c1C
inactive: dose: 0.62 mg/kg/injection, schedule: Q01DX009 (ip), vehicle: Klucel (hydroxypropylcellulose) (HPC) 93 % of control | dose: 1.25 mg/kg/injection, schedule: Q01DX009 (ip), vehicle: Klucel (hydroxypropylcellulose) (HPC) 87 % of control

CSc1ncnc2c1ncn2C1OC(CO)C(O)C1O (stereo not given)
inactive: dose: 2.0 mg/kg/injection, schedule: Q01DX009 (ip), vehicle: saline sonified 95 % of control | dose: 4.0 mg/kg/injection, schedule: Q01DX009 (ip), vehicle: saline sonified 88 % of control | dose: 7.5 mg/kg/injection, schedule: Q01DX009 (ip), vehicle: saline with Tween-80 100 % of control | dose: 8.0 mg/kg/injection, schedule: Q01DX009 (ip), vehicle: saline sonified 86 % of control | dose: 15.0 mg/kg/injection, schedule: Q01DX009 (ip), vehicle: saline with Tween-80 97 % of control | dose: 16.0 mg/kg/injection, schedule: Q01DX009 (ip), vehicle: saline sonified 95 % of control

Nc1ccn(C2CC(O)C(CO)O2)c(=O)n1 (stereo not given)
inactive: dose: 9.38 mg/kg/injection, schedule: Q01DX009 (ip), vehicle: water 105 % of control | dose: 18.75 mg/kg/injection, schedule: Q01DX009 (ip), vehicle: water 101 % of control | dose: 37.5 mg/kg/injection, schedule: Q01DX009 (ip), vehicle: water 100 % of control | dose: 75.0 mg/kg/injection, schedule: Q01DX009 (ip), vehicle: water 99 % of control | dose: 150.0 mg/kg/injection, schedule: Q01DX009 (ip), vehicle: water 109 % of control

O=C(O)/C=C/C(=O)Nc1ccccc1
inactive: [9] 106 % of control | dose: 200.0 mg/kg/injection, schedule: Q04DX003 (ip), vehicle: Klucel (hydroxypropylcellulose) (HPC) 96 % of control | [10] 103 % of control

N#CC(C#N)=CN1CCCCCC1
inactive: dose: 3.13 mg/kg/injection, schedule: Q01DX009 (ip), vehicle: saline with Tween-80 107 % of control | dose: 3.13 mg/kg/injection, schedule: Q04DX003 (ip), vehicle: saline with Tween-80 93 % of control | [11] 102 % of control | dose: 6.25 mg/kg/injection, schedule: Q04DX003 (ip), vehicle: saline with Tween-80 97 % of control | [12] 102 % of control | dose: 12.5 mg/kg/injection, schedule: Q04DX003 (ip), vehicle: saline with Tween-80 100 % of control

COC(=O)C1C(O)C(C)C(O)C(C)(O)C=C(C)C2=C3C(=C(C)C(=O)c4c(O)c(c(C)c(OC(C)=O)c43)NC(=O)C(C)=C/C=C\C(C)(O)C(O)C(C)C1O)OCO2 (stereo not given)
inactive: dose: 50.0 mg/kg/injection, schedule: Q01DX009 (ip), vehicle: Klucel (hydroxypropylcellulose) (HPC) 94 % of control | [4] 94 % of control | [5] 91 % of control

Cc1cc(CN)c(C)cc1CN
inactive: dose: 44.0 mg/kg/injection, schedule: Q01DX009 (ip), vehicle: saline 91 % of control

CC(=O)N(C(C)=O)C1=C(c2ccccc2)C(=O)c2ccccc21
inactive: [4] 100 % of control | [5] 97 % of control | dose: 400.0 mg/kg/injection, schedule: Q01DX009 (ip), vehicle: Klucel (hydroxypropylcellulose) (HPC) 97 % of control

O=C(Nc1nccs1)C(F)(F)F
inactive: [13] 98 % of control | [14] 106 % of control | dose: 200.0 mg/kg/injection, schedule: Q01DX009 (ip), vehicle: saline 103 % of control | dose: 400.0 mg/kg/injection, schedule: Q01DX009 (ip), vehicle: saline 97 % of control

CN(C)C1CCN(Cc2ccccc2)CC1
inactive: dose: 50.0 mg/kg/injection, schedule: Q04DX003 (ip), vehicle: saline 100 % of control | dose: 100.0 mg/kg/injection, schedule: Q04DX003 (ip), vehicle: saline 90 % of control | dose: 200.0 mg/kg/injection, schedule: Q04DX003 (ip), vehicle: saline 93 % of control

C(COCC1CO1)OCC1CO1 (stereo not given)
inactive: [8] 91 % of control | [13] 113 % of control | [14] 119 % of control

CCCCC(=O)OC1CC2CCC1(C)C2(C)C (stereo not given)
inactive: [4] 90 % of control

CN(C)CCCN1Cc2ccccc2Cc2ccccc21
inactive: [6] 105 % of control | [7] 103 % of control | [8] 111 % of control | [13] 101 % of control | [14] 107 % of control

Clc1ccc2nc(CI)c(CI)nc2c1
inactive: dose: 0.19 mg/kg/injection, schedule: Q01DX009 (ip), vehicle: saline with Tween-80 90 % of control | dose: 0.39 mg/kg/injection, schedule: Q01DX009 (ip), vehicle: saline with Tween-80 90 % of control | dose: 0.78 mg/kg/injection, schedule: Q01DX009 (ip), vehicle: saline with Tween-80 100 % of control | dose: 1.56 mg/kg/injection, schedule: Q01DX009 (ip), vehicle: saline with Tween-80 104 % of control | [11] 102 % of control | [12] 97 % of control | [15] 89 % of control and 97 % of control | [16] 100 % of control | [17] 100 % of control

O=C(N/N=C/c1cccc(S(=O)(=O)O)c1)c1ccncc1
inactive: [18] 99 % of control | [19] 100 % of control | dose: 400.0 mg/kg/injection, schedule: Q01DX009 (ip), vehicle: saline with Tween-80 103 % of control

CCNC(C)(C)C(SSSC(c1ccc(Cl)cc1)C(C)(C)NCC)c1ccc(Cl)cc1 (stereo not given)
inactive: [1] 108 % of control | [2] 94 % of control | [3] 89 % of control and 94 % of control

CN(C)c1ccc(N=C2C=CC(=O)C=C2)cc1
inactive: dose: 1.5 mg/kg/injection, schedule: Q01DX009 (ip), vehicle: saline 111 % of control | dose: 3.0 mg/kg/injection, schedule: Q01DX009 (ip), vehicle: saline 98 % of control | dose: 6.0 mg/kg/injection, schedule: Q01DX009 (ip), vehicle: saline 105 % of control

COC(=O)C1C(O)C(C)C(=O)C(C)/C=C\C=C(C)C(=O)Nc2c(C)c(OC(C)=O)c3c(c2O)C(=O)C(C)=C2OCOC(=C23)C(C)=CC(C)(O)C(O)C(C)C1O (stereo not given)
inactive: [4] 89 % of control | [5] 89 % of control

O=C(CCl)NCC(=O)NC(Cc1ccccc1)C(=O)O (stereo not given) (ClAc-Gly-[ξF]-OH)
inactive: [20] 103 % of control | [18] 100 % of control | [19] 93 % of control

CC(C)(C)OC(=O)NC(CCC(=O)OCc1ccccc1)C(=O)ON1C(=O)CCC1=O (stereo not given)
inactive: [20] 95 % of control | [18] 90 % of control

CC(C)=CN1CCCCC1
inactive: [12] 101 % of control | [15] 105 % of control | [16] 104 % of control | [20] 108 % of control | [17] 109 % of control | [21] 90 % of control | [19] 86 % of control

CCOC(=O)NC(C)(C)CN(CCO)C(=O)OCC
inactive: [9] 102 % of control | [10] 100 % of control

CCCN1COC(OCC)C(C)(C)C1 (stereo not given)
inactive: [15] 104 % of control | [20] 100 % of control | [18] 98 % of control | [19] 100 % of control

CC(C)=Cc1ccccc1
inactive: [18] 95 % of control | [21] 95 % of control | [19] 86 % of control | [22] 93 % of control

COc1ccccc1N=NC(C#N)C(N)=O (stereo not given)
inactive: [11] 91 % of control | [12] 94 % of control | [15] 87 % of control | [20] 112 % of control

COc1cc2c(cc1OC)C(c1ccc(O)c(O)c1)CNC2 (stereo not given)
inactive: [17] 99 % of control | [21] 89 % of control | [22] 90 % of control

CCCCCCCCC(=O)CCCCC
inactive: dose: 75.0 mg/kg/injection, schedule: Q01DX009 (ip), vehicle: Klucel (hydroxypropylcellulose) (HPC) 104 % of control | dose: 150.0 mg/kg/injection, schedule: Q01DX009 (ip), vehicle: Klucel (hydroxypropylcellulose) (HPC) 103 % of control | dose: 300.0 mg/kg/injection, schedule: Q01DX009 (ip), vehicle: Klucel (hydroxypropylcellulose) (HPC) 103 % of control
